According to PMC10877564, “Activity of Gut-Derived Nisin-like Lantibiotics against Human Gut Pathogens and Commensals” (ACS Chemical Biology, 2024):
Positions of bridges follow the written chain, without caps; N, C: chain ends. Non-standard residues stand in square brackets, D forms with d. No end group written: not given here. Abu = CC[C@H](N)C(=O)O; Dhb = C/C=C(\N)C(=O)O; Dha = C=C(N)C(=O)O

Legend:
A. hadrus MSK.14.23 = experiment: MIC assay, anaerobic broth dilution; format: cell-based, Anaerostipes hadrus; details: BHIS, 37 °C, 48 h, 3-fold serial dilution
Text: Antibiotic treatment may result in collateral damage to commensal bacteria in the human microbiome, leading to dysbiosis and susceptibility to various diseases.[44] How lantibiotics impact Gram-positive commensals from the human gut has remained unclear. Therefore, we performed antimicrobial activity tests of these lantibiotics against selected Gram-positive human gut commensals, most of which belong to the Lachnospiraceae family, one of the most abundant bacterial families in the human gut.[27] In general, human gut commensals were more susceptible to the set of investigated lantibiotics compared to pathogens (Figure 3). […]
Isolation of human gut commensal bacteria
Isolation and growth of commensal bacteria was done as previously reported.5 Briefly, fresh donor fecal samples were transferred into an anaerobic chamber (Coy Labs) within 1 h of collection. The anaerobic chamber was maintained using a gas mix consisting of 5% hydrogen, 5% carbon dioxide and 90% nitrogen, and hydrogen was maintained at ~3.0% using an anaerobic gas infuser. […]
(§1) All MIC assays were performed under anaerobic condition. […] Lantibiotics were dissolved in DPBS, and concentrations were determined by BCA assay (Pierce) according to the manufacturer’s protocol. […]

[1] = Liposome permeabilization assay, liposomes without lipid II; format: biochemical; details: 375 nM lantibiotic; DOPC, 50 µM phospholipid; pyranine fluorescence, 30 min; three replicates; Figure S7
Description: To further investigate the mechanisms of action of these nisin-like lantibiotics, we performed liposome permeabilization assays using liposomes with or without lipid II (Figure S7).
Liposome Permeabilization Assay
To prepare pyranine encapsulated liposomes, DOPC (25 mg/mL in CHCl3, purchased from Avanti) was deposited into a vial and mixed with lipid II (dissolved in 2:1 CHCl3: MeOH, prepared chemoenzymatically).6 The solvent was removed using a stream of N2 leaving a thin film. Residual solvent was removed by storing it overnight in a vacuum desiccator. The film was rehydrated in buffer (5 mM Tricine, 5 mM MES, 5 mM NaCl, 1 mM pyranine pH = 6.0) and suspended with vortexing. The suspension was subjected to freeze-thaw three times before extrusion through a […] polycarbonate filter (21 passes). Excess pyranine was removed by passing the liposome solution through a Sephadex G-50 column previously equilibrated with buffer (5 mM Tricine, 5 mM MES, 5 mM NaCl, pH = 6.0). The eluted liposome solution containing the highest concentration of encapsulated pyranine (as determined visually with a UV lamp) was immediately placed on ice. Phospholipid concentration was determined by NMR as described previously.7 To measure liposome permeabilization, to a 96 well black polystyrene plate was added buffer (5 mM Tricine, 5 mM MES, 5 mM NaCl, pH = 8.0; 97 µL) and liposome solution (3 µL; 50 µM phospholipid concentration during assay). The wells were allowed to equilibrate for 8 min at room temperature then antibiotic was added. The antibiotic concentration in each well was 375 nM.
Pyranine fluorescence was monitored for 30 min then Triton X-100 was added to a final concentration of 0.1% and pyranine fluorescence was monitored for an additional 5 min. The pyranine fluorescence signal was max-min normalized. […]
Fig. S7 Liposome permeabilization assays of nisin-like lantibiotics. (A) Scheme of liposome […]
low fluorescence. Fluorescence increases upon liposome permeabilization and pH increase . (B) Fraction of liposomes permeabilized by lantibiotics (375 nM). Liposomes were composed of DOPC with or without 0.1 mol% lipid II. Error bars represent the standard of deviation of three […]
(1 picture or pasted object on this page, not shown here)

[2] = test system: selected Gram-positive human gut commensals; experiment: MIC assay against the panel of Gram-positive human gut commensals; format: cell-based; details: commensal panel, Figure 3F-M; anaerobic
Text: (§2) Antibiotic treatment may result in collateral damage to commensal bacteria in the human microbiome, leading to dysbiosis and susceptibility to various diseases.[44] How lantibiotics impact Gram-positive commensals from the human gut has remained unclear. Therefore, we performed antimicrobial activity tests of these lantibiotics against selected Gram-positive human gut commensals, most of which belong to the Lachnospiraceae family, one of the most abundant bacterial families in the human gut.[27] In general, human gut commensals were more susceptible to the set of investigated lantibiotics compared to pathogens (Figure 3).
Elution Buffer (4 M guanidine hydrochloride, 20 mM Tris HCl, pH 7.5 at 25 °C, 100 mM NaCl, 1 M imidazole). Peptides eluted from the Ni resin were concentrated and desalted using 3 kDa Amicon filters (Millipore). For leader peptide removal, the peptide (1:20 trypsin to peptide) was incubated with the trypsin protease in 50 mM Tris-HCl, pH 8 overnight at 37 °C. Lastly, the core peptides were further purified with HPLC using an Agilent 1200 instrument (Agilent) as specified in general methods. About 1.5 mg recombinant peptide was obtained after HPLC purification per […]
as §1

F. fissicatena MSK.9.3 = experiment: MIC assay, anaerobic broth dilution; format: cell-based, Faecalicatena fissicatena; details: BHIS, 37 °C, 48 h, 3-fold serial dilution
Text: as §2
Elution Buffer (4 M guanidine hydrochloride, 20 mM Tris HCl, pH 7.5 at 25 °C, 100 mM NaCl, 1 M imidazole). Peptides eluted from the Ni resin were concentrated and desalted using 3 kDa Amicon filters (Millipore). For leader peptide removal, the peptide (1:20 trypsin to peptide) was incubated with the trypsin protease in 50 mM Tris-HCl, pH 8 overnight at 37 °C. Lastly, the core peptides were further purified with HPLC using an Agilent 1200 instrument (Agilent) as specified […]
in general methods. […]
Isolation of human gut commensal bacteria […]
as §1

Substance: nisin A (I[Dhb]AI[Dha]LC[Abu]PGCK[Abu]GALMGCNMK[Abu]A[Abu]CHCSIHV[Dha]K; thioether 8-11, 13-19, 23-26, 25-28, 3-7; UniProt P13068 24-57, looked up) [prototypical class I lantibiotic produced by L. lactis, food preservative; commercial nisin A]
- nisin A MIC (A. hadrus MSK.14.23): 0.0110 µM
- permeabilization of liposomes without lipid II compared to liposomes with lipid II (in words) [1]: decreased permeabilization activities
- antimicrobial activity against human gut commensals (ranking in words) [2]: generally more effective in growth inhibition
- nisin A MIC (F. fissicatena MSK.9.3): 0.0329 µM
